According to patent publication US20250296929A1, “NOVEL HEPATOSELECTIVE POLYADENYLATING POLYMERASES INHIBITORS AND THEIR METHOD OF USE” (BARUCH S. BLUMBERG INSTITUTE, priority 2021, published 2025):
Where “and” joins values, the source holds several entries; their conditions need not be identical. Equal entries are not always repeated. Where two headings read alike, the source gives them in different places.

Key:
[1] = Pharmacokinetics after 8 mg/kg oral (PO) administration, plasma; type: in vivo, CD1 mice; design: AUClast/D: unit not given here
Method: Protocol for pharmacokinetic and tissue distribution studies. The pharmacokinetics of the compounds was studied in CD1 mice after intravenous (IV) and oral gavage (PO) administration. Mouse PK studies was conducted at 3 mg/kg (IV) and 8 mg/kg (PO). Plasma samples obtained from dosed animals, at ten time points, including 5, 15 and 30 minutes and 1, 1.5, 2, 4, 6, 8 and 24 hr post-dose for processing to plasma, were prepared for analysis by means of a single step protein precipitation technique, by adding 200 μL of acetonitrile containing an IS mixture (labetalol, imipramine and diclofenac) to 50 μL aliquots of individual subject samples. Samples were mixed by vortex for homogeneity and then subjected to centrifugation at 4000 rpm for 10 min. The supernatant (200 μL) was collected and injected into the LC-MS/MS for analysis. Pharmacokinetic parameters will be calculated using established non-compartmental methods. The liver distribution of the compounds was studied in the PO group and liver tissues were collected at each time point after PO administration. Accurately weighed whole liver tissues were collected in a 50 mL tube, and 3 volumes per weight of water will be added. Tissue samples were homogenized and 50 μL of the homogenates will be processed along with plasma samples as described above.

OATP1B1 = molecular target: T1, OATP1B1 (Homo sapiens, UniProt Q9Y6L6); assay: OATP1B1 transporter substrate uptake in OATP1B1-HEK293 cells; type: in vitro ADME; conditions: test concentration 1 μM
T1 construct: expressed in transfected cells; host or cells: HEK293
T1 sequence (Q9Y6L6 1-691): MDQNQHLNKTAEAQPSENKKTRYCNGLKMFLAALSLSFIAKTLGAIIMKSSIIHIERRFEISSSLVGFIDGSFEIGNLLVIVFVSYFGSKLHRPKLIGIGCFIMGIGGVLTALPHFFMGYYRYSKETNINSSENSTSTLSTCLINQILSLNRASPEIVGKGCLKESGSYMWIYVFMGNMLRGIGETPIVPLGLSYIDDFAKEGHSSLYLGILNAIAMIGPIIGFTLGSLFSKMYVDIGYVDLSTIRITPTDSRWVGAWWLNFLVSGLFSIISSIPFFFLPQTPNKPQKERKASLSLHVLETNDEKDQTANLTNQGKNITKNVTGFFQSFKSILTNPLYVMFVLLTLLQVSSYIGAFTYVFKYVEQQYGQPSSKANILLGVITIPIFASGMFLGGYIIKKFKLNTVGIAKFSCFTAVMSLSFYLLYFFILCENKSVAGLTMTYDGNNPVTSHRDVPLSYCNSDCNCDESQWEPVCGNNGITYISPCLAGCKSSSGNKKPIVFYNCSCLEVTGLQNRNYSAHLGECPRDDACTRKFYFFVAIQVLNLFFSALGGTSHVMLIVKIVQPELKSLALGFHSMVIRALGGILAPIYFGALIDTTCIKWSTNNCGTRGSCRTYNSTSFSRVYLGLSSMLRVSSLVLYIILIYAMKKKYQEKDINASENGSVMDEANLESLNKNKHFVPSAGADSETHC

[2] = system: HBsAg secretion, HBV producing cell line HepG2.2.15; assay: Cellular assay: HBsAg inhibition in HBV producing cell line HepG2.2.15; type: cell-based; conditions: Hepatitis B virus
Method: (§1) Cellular assays method 1: Cellular assays: The HBV producing cell line HepG2.2.15 was cultured in DMEM/F12 containing 10% fetal bovine serum (FBS), 100 U/ml penicillin and 100 μg/ml streptomycin (Invitrogen). Compounds of the disclosure in DMSO was added into the culture medium when cell reached 100% confluence. The final concentration of DMSO was adjusted to 0.5%. Culture medium was replaced in two days and the cell was cultured for additional two days in the presence of compound. HBsAg inhibition in culture medium was then detected with AlphaLisa assay using anti-HBsAg antibodies of 10-H05H and 60C-CR2100RB from Fitzgerald Internantional. To examine the change of nucleic acid, total RNA was extracted with Trizol reagents and resolved in glyoxal agarose gel. HBV RNA blotted onto nitrocellulose membrane was measured with P32 labeled ribo-probe. Reduction and shortening of viral RNA indicates on target effect of the tested compound. […] HepG2.2.15 cells were first seeded in 96-well plate (Corning, Cat #: CLS3595) at density of 10,000 cells/well in 100 ul DMEM/F12 medium containing 10% FBS. When cells reached 100% confluence, treatment with compounds of the disclosure was initiated, and cells were cultured in the way as described for HBsAg inhibition study. Four days post drug treatment, 100 ul of CellTiter-Glo reagents (Promega, Cat #G7570) were added into each well and the mixture was incubated at 23° C. for 12 minutes, followed by the reading of luminescent signal in Tecan's Infinite 200 PRO. Compound IC50 on HBsAg and CC50 on cell viability were calculated using Graphpad prism. The IC50 and CC50 are defined as the compound concentration (or conditioned media log dilution) at which HBsAg secretion and cytotoxicity, respectively, are reduced by 50% compared to the no drug control.
(§2) Cellular assays method 2: HepG2.2.15 cells were seeded in duplicate into white, 96-well plates at 1.5×10^4 cells/well. The cells were treated with a 3-fold serial dilution series of the compounds in DMSO. The final DMSO concentration in all wells was 1%, and DMSO was used as no drug control. The HBsAg chemiluminescence immunoassay (CLIA) kit (Autobio Diagnostics Co., Zhengzhou, China) was used to measure the levels of secreted HBV antigens semi-quantitatively. For the detection, 50 μL/well culture supernatant was used and the procedure conducted as directed by manufacturer's instructions. The cytotoxicity was measured using CellTiter-Glo (Promega, Madison, WI, USA, catalogue no. G7571). Dose-response curves were generated and the IC50 and CC50 values were calculated using Graphpad prism. The IC50 and CC50 are defined as the compound concentration (or conditioned media log dilution) at which HBsAg secrection and cytotoxicity, respectively, are reduced by 50% compared to the no drug control.

[3] = Cellular toxicity (CellTiter-Glo) in HepG2.2.15 cells; type: cell-based; conditions: human
Method: as §1, §2

[4] = CD1, mouse, plasma, 8 mg/kg oral, mean

For `COc1cc2c(cc1OCCCCCCC(=O)O)C[C@@H](C(C)C)n1cc(C(=O)O)c(=O)cc1-2` [Example 6, (S)-9-((6-carboxyhexyl)oxy)-6-isopropyl-10-methoxy-2-oxo-6,7-dihydro-2H-pyrido[2,1-a]isoquinoline-3-carboxylic acid], the F ([1]; 8 mg/kg oral vs 3 mg/kg IV, mean) was 5.09%, the Plasma concentration ([1]; 8 mg/kg oral, 0.25 h, individual animals) was 10.3 ng/mL and 19.5 ng/mL and 18.4 ng/mL and the Plasma concentration ([1]; 8 mg/kg oral, 0.5 h, individual animals) was 9.93 ng/mL and 9.00 ng/mL and 9.40 ng/mL. For the same compound, the Plasma concentration ([1]; 8 mg/kg oral, 1 h, individual animals) was 4.10 ng/mL and 5.94 ng/mL and 9.27 ng/mL, the Plasma concentration ([1]; 8 mg/kg oral, 2 h, individual animals) was 5.41 ng/mL and 4.55 ng/mL and 2.29 ng/mL and the Plasma concentration ([1]; 8 mg/kg oral, 4 h, individual animals) was 3.03 ng/mL and 4.12 ng/mL and 3.68 ng/mL. For the same compound, the Plasma concentration ([1]; 8 mg/kg oral, 6 h, individual animals) was 1.53 ng/mL and 2.42 ng/mL and 2.85 ng/mL, the Plasma concentration ([1]; 8 mg/kg oral, 8 h, individual animals) was 6.65 ng/mL and 2.11 ng/mL and BLOQ and the Plasma concentration ([1]; 8 mg/kg oral, 24 h, individual animals) was “BLOQ”. For the same compound, the AUClast/D ([1]; 8 mg/kg oral, mean) was 4.33, the concentration at 0.25 h ([1]; CD1, mouse, plasma, oral, 8 mg/kg, 8 mg/kg oral, 0.25 h, individual animals, read-out: Plasma concentration) was 18.4 ng/mL and the concentration at 0.25 h ([1]; CD1, mouse, plasma, oral, 8 mg/kg, 8 mg/kg oral, 0.25 h, mean, read-out: Mean plasma concentration) was 16.1 ng/mL. For the same compound, the concentration at 0.5 h ([1]; CD1, mouse, plasma, oral, 8 mg/kg, 8 mg/kg oral, 0.5 h, individual animals, read-out: Plasma concentration) was 9.4 ng/mL, the concentration at 0.5 h ([1]; CD1, mouse, plasma, oral, 8 mg/kg, 8 mg/kg oral, 0.5 h, mean, read-out: Mean plasma concentration) was 9.44 ng/mL and the concentration at 1 h ([1]; CD1, mouse, plasma, oral, 8 mg/kg, 8 mg/kg oral, 1 h, mean) was 6.44 ng/mL. The concentration at 2 h ([1]; CD1, mouse, plasma, oral, 8 mg/kg, 8 mg/kg oral, 2 h, mean) was 4.08 ng/mL, the concentration at 4 h ([1]; CD1, mouse, plasma, oral, 8 mg/kg, 8 mg/kg oral, 4 h, individual animals, read-out: Plasma concentration) was 3.68 ng/mL and the concentration at 4 h ([1]; CD1, mouse, plasma, oral, 8 mg/kg, 8 mg/kg oral, 4 h, mean, read-out: Mean plasma concentration) was 3.61 ng/mL. It also gave a concentration at 6 h ([1]; CD1, mouse, plasma, oral, 8 mg/kg, 8 mg/kg oral, 6 h, individual animals, read-out: Plasma concentration) of 2.85 ng/mL, a concentration at 6 h ([1]; CD1, mouse, plasma, oral, 8 mg/kg, 8 mg/kg oral, 6 h, mean, read-out: Mean plasma concentration) of 2.27 ng/mL and a concentration at 8 h ([1]; CD1, mouse, plasma, oral, 8 mg/kg, 8 mg/kg oral, 8 h, mean) of 4.38 ng/mL. It also gave an AUC(0-t) [1, 4] of 34.7 ng·h/mL, a Cmax [1, 4] of 16.1 ng/mL and a Tmax [1, 4] of 15 min. For the same compound, the “Uptake Ratio (−/+Inhibitor)” value (OATP1B1; OATP1B1-HEK293 cells, inhibitor Rifamycin SV) was 11.17, the “Uptake Ratio (Transporter(−Inhibitor)/Mock(−Inhibitor))” value (OATP1B1; OATP1B1-HEK293 vs Mock (normal HEK293)) was 18.99 and the EC50 [2] was 23 nM. The CC50 [3] was > 10000 nM.
